Measurements taken from ChEMBL document CHEMBL4219265, “Piperlongumine derivative, CG-06, inhibits STAT3 activity by direct binding to STAT3 and regulating the reactive oxygen species in DU145 prostate carcinoma cells” (Bioorg Med Chem Lett, 2018).

Columns and labels:
[1] = biological target: T1, Signal transducer and activator of transcription 3 (Homo sapiens, UniProt P40763); assay: Inhibition of STAT3-induced ERK1/2 phosphorylation in human DU145 cells assessed as ratio of phosphorylated ERK1/2 protein level to GAPDH protein level at 5 uM after 1 hr by Western blot analysis (reference value: 1); type: cell-based
[2] = biological target: T1, Signal transducer and activator of transcription 3; assay: Binding affinity to STAT3 in human DU145 cell lysates assessed as reduction in pronase-induced STAT3 digestion by measuring ratio of STAT3 protein level to GAPDH protein level incubated for 1 hr in absence of pronase by Western blot analysis
DU-145 [3] = assay: Effect on total ERK1/2 protein level in human DU145 cells assessed as ratio of ERK1/2 protein level to GAPDH protein level at 5 uM after 3 hrs by Western blot analysis (reference value: 1); type: ADME, cell-based; conditions: du-145, 3 h
DU-145 [4] = assay: Effect on total ERK1/2 protein level in human DU145 cells assessed as ratio of ERK1/2 protein level to GAPDH protein level at 5 uM after 0.5 hrs by Western blot analysis (reference value: 1); type: ADME, cell-based; conditions: du-145, 0.5 h
[5] = biological target: T1, Signal transducer and activator of transcription 3; assay: Binding affinity to STAT3 in human DU145 cell lysates assessed as reduction in pronase-induced STAT3 digestion by measuring ratio of STAT3 protein level to GAPDH protein level at 50 uM incubated for 1 hr in absence of pronase by Western blot analysis (reference value: 1)
[6] = biological target: T1, Signal transducer and activator of transcription 3; assay: Inhibition of STAT3 in human DU145 cells assessed as increase in ERK1/2 phosphorylation at 5 uM by Western blot analysis; type: cell-based; conditions: TDE = time-dependent effect
[7] = biological target: T1, Signal transducer and activator of transcription 3; assay: Binding affinity to STAT3 in human DU145 cell lysates assessed as reduction in pronase-induced STAT3 digestion by measuring ratio of STAT3 protein level to GAPDH protein level at 50 uM incubated for 1 hr followed by 0.05% pronase addition for 10 mins by Western blot analysis (reference value: 1)
[8] = biological target: T1, Signal transducer and activator of transcription 3; assay: Binding affinity to STAT3 in human DU145 cell lysates assessed as reduction in pronase-induced STAT3 digestion by measuring ratio of STAT3 protein level to GAPDH protein level at 50 uM incubated for 1 hr followed by 0.05% pronase addition for 10 mins by Western blot analysis (reference value: 0.4)
DU-145 [9] = assay: Cell cycle arrest in human DU145 cells assessed as accumulation at S phase at 5 uM after 24 hrs by flow cytometry (reference value: 6.6%); type: functional
[10] = biological target: T1, Signal transducer and activator of transcription 3; assay: Inhibition of STAT3 in human DU145 cells assessed as ratio of Bcl-2 protein level to tubulin protein level at 5 uM after 48 hrs by Western blot analysis (reference value: 1); type: cell-based
DU-145 [11] = assay: Induction of intracellular ROS generation in human DU145 cells at 5 uM by DCFH-DA probe based flow cytometry; type: functional, cell-based; conditions: TDE = time-dependent effect
LNCaP [12] = assay: Growth inhibition of human LNCAP cells after 48 hrs by WST-1 assay; type: functional
[13] = biological target: T1, Signal transducer and activator of transcription 3; assay: Inhibition of STAT3 in human DU145 cells assessed as ratio of PARP protein level to tubulin protein level at 5 uM after 48 hrs by Western blot analysis (reference value: 1); type: cell-based
[14] = biological target: T1, Signal transducer and activator of transcription 3; assay: Inhibition of STAT3 phosphorylation at Tyr705 residues in human DU145 cells assessed as ratio of phosphorylated STAT3 protein level to GAPDH protein level at 5 uM after 24 hrs by Western blot analysis (reference value: 1); type: cell-based
[15] = biological target: T1, Signal transducer and activator of transcription 3; assay: Inhibition of STAT3 phosphorylation at Tyr705 residues in human DU145 cells assessed as ratio of phosphorylated STAT3 protein level to GAPDH protein level at 5 uM after 1 hr by Western blot analysis (reference value: 1); type: cell-based
DU-145 [16] = assay: Cell cycle arrest in human DU145 cells assessed as accumulation at G0/G1 phase at 5 uM after 12 hrs by flow cytometry (reference value: 24.07%); type: functional
[17] = biological target: T1, Signal transducer and activator of transcription 3; assay: Binding affinity to STAT3 in human DU145 cell lysates assessed as reduction in pronase-induced STAT3 digestion by measuring ratio of STAT3 protein level to GAPDH protein level at 100 uM incubated for 1 hr in absence of pronase by Western blot analysis (reference value: 1)
LNCaP [18] = assay: Effect on total STAT3 protein level in IL-6 stimulated human LNCAP cells assessed as ratio of STAT3 protein level to GAPDH protein level at 5 uM preincubated for 12 hrs followed by IL-6 stimulation for 30 mins by Western blot analysis (reference value: 1.3); type: ADME, cell-based; conditions: 0.5 h
PC-3 = assay: Growth inhibition of human PC3 cells after 48 hrs by WST-1 assay; type: functional; conditions: PC-3, 48 h
DU-145 [19] = assay: Effect on total STAT3 protein level in human DU145 cells assessed as ratio of STAT3 protein level to GAPDH protein level at 5 uM after 12 hrs by Western blot analysis (reference value: 1); type: ADME, cell-based; conditions: du-145, 12 h
[20] = biological target: T1, Signal transducer and activator of transcription 3; assay: Binding affinity to STAT3 in human DU145 cell lysates assessed as reduction in pronase-induced STAT3 digestion by measuring ratio of STAT3 protein level to GAPDH protein level at 10 uM incubated for 1 hr in absence of pronase by Western blot analysis (reference value: 1)
DU-145 [21] = assay: Effect on total STAT3 protein level in human DU145 cells assessed as ratio of STAT3 protein level to GAPDH protein level at 5 uM after 6 hrs by Western blot analysis (reference value: 1); type: ADME, cell-based; conditions: du-145, 6 h
[22] = biological target: T1, Signal transducer and activator of transcription 3; assay: Inhibition of STAT3 in human DU145 cells assessed as ratio of survivin protein level to tubulin protein level at 5 uM after 48 hrs by Western blot analysis (reference value: 1); type: cell-based
[23] = biological target: T1, Signal transducer and activator of transcription 3; assay: Inhibition of STAT3 phosphorylation in human DU145 cells assessed as ratio of phosphorylated STAT3 protein level to GAPDH protein level at 5 uM preincubated with NAC for 1 hr followed by compound addition for 1 hr by Western blot analysis (reference value: 0.3); type: cell-based
[24] = biological target: T1, Signal transducer and activator of transcription 3; assay: Binding affinity to STAT3 in human DU145 cell lysates assessed as reduction in pronase-induced STAT3 digestion by measuring ratio of STAT3 protein level to GAPDH protein level at 50 uM incubated for 1 hr followed by 0.02% pronase addition for 10 mins by Western blot analysis (reference value: 0.6)
[25] = biological target: T1, Signal transducer and activator of transcription 3; assay: Inhibition of STAT3 phosphorylation in human LNCAP cells assessed as ratio of phosphorylated STAT3 protein level to GAPDH protein level at 5 uM after 12 hrs by Western blot analysis (reference value: 1); type: cell-based
[26] = biological target: T1, Signal transducer and activator of transcription 3; assay: Binding affinity to STAT3 in human DU145 cell lysates assessed as reduction in pronase-induced STAT3 digestion by measuring ratio of STAT3 protein level to GAPDH protein level at 1 uM incubated for 1 hr followed by 0.05% pronase addition for 10 mins by Western blot analysis (reference value: 1)
[27] = biological target: T1, Signal transducer and activator of transcription 3; assay: Inhibition of STAT3 phosphorylation at Tyr705 residues in human DU145 cells assessed as ratio of phosphorylated STAT3 protein level to GAPDH protein level at 5 uM after 0.5 hrs by Western blot analysis (reference value: 1); type: cell-based

T1 sequence (P40763 whole entry): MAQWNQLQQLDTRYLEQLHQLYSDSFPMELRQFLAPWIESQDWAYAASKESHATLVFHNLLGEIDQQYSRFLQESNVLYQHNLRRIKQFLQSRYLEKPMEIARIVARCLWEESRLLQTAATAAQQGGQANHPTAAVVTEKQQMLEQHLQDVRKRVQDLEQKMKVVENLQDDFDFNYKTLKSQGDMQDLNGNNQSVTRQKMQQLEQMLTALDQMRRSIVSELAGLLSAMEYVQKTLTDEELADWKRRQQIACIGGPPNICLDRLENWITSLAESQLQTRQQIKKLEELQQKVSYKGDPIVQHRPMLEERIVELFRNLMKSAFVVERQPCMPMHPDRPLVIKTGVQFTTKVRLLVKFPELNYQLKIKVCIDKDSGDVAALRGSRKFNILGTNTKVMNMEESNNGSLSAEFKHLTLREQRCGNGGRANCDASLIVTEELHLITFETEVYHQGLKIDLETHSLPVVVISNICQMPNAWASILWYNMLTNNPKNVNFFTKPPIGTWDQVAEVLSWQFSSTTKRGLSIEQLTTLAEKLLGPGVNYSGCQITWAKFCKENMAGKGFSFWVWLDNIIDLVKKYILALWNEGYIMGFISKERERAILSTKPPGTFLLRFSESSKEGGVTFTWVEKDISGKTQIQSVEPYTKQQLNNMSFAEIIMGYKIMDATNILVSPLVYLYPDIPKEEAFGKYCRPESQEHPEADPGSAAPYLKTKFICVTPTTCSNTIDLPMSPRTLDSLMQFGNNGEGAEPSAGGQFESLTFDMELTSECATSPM

`C=C(C)C(=O)N(Cc1ccc(Br)cc1)C(=O)/C=C/c1cc(OC)c(OC)c(OC)c1` was tested, and the Ratio [1] was 1.8, the Activity [2] was “Dose-dependent effect” and the Ratio (DU-145 [3]) was 1.1. The Ratio (DU-145 [4]) was 1.1, the Ratio [5] was 1.1 and the inhibition [6] was “Tde”. The Ratio [7] was 2.2, the Ratio [8] was 0.5 and the Activity (DU-145 [9]) was 8.27%. For the same compound, the Ratio [10] was 0.7, the Activity (DU-145 [11]) was “Tde” and the GI50 (LNCaP [12]) was 7.7 µM. For the same compound, the Ratio [13] was 0.3 to 0.6, the Ratio [14] was 0.3 and the Ratio [15] was 0.3. It also gave an Activity (DU-145 [16]) of 38.15%, a Ratio [17] of 1.2 and a Ratio (LNCaP [18]) of 1.1. For the same compound, the GI50 (PC-3) was > 10 µM, the Ratio (DU-145 [19]) was 0.9 and the Ratio [20] was 1.1. For the same compound, the Ratio (DU-145 [21]) was 1, the Ratio [22] was 0.7 and the Ratio [23] was 1.2. For the same compound, the Ratio [24] was 0.6, the Ratio [25] was 1 and the Ratio [26] was 1.1. For the same compound, the Ratio [27] was 0.5.
